We go through two compounds from patent publication US20110021556A1, “PYRROLIDINYL DERIVATIVES AND USES THEREOF” (Hoffman-La Roche, Inc., priority 2008, published 2011).

The structures appear in SMILES notation. Counter-ions that a name gives are not always drawn.

Take `c1ccc(CC2(c3ccc4[nH]ccc4c3)CCNC2)nc1` (centres unmarked): the melting point fell in the range of 169.9 to 171.1 °C.
In turn, `c1ccc(CC2(c3ccc4sccc4c3)CCNC2)cc1` (centres unmarked) (as salt: hydrochloride) returned a melting point of 120.9 to 123 °C.
